Data reported in patent US20200338084A1, “INHIBITORS OF LOW MOLECULAR WEIGHT PROTEIN TYROSINE PHOSPHATASE (LMPTP) AND USES THEREOF” (Sanford Burnham Prebys Medical Discovery Institute, priority 2018, published 2020).

Biological target: T1, human LMPTP-A (Homo sapiens, UniProt P24666)
T1 sequence (P24666 1-158): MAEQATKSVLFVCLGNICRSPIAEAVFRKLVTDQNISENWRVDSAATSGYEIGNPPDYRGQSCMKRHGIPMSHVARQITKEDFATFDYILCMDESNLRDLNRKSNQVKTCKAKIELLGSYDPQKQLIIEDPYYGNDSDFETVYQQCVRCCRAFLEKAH
Assay: Enzyme Assay of Inhibition of LMPTP-A
Format: biochemical
Conditions: phosphatase assay, OMFP or pNPP substrate, 50 mM Bis-Tris pH 6.0, 37° C.
Description: Phosphatase assays were performed in buffer containing 50 mM Bis-Tris, pH 6.0, 1 mM DTT and 0.01% Triton X-100 at 37° C. For assays conducted with 3-O-methylfluorescein phosphate (OMFP) as substrate, fluorescence was monitored continuously at λex=485 and λem=525 nm. For assays conducted with para-nitrophenylphosphate (pNPP) as substrate, the reaction was stopped by addition of 2× reaction volume of 1 M NaOH, and absorbance was measured at 405 nm. IC50 values of compounds disclosed herein were determined from plots of inhibitor concentration versus percentage of enzyme activity. For inhibitor selectivity assays, each PTP was incubated with either 0.4 mM OMFP or 5 mM pNPP in the presence of 40 μM compound or DMSO. […] For the inhibitor reversibility assay, 50 nM human LMPTP-A was pre-incubated with 10 μM of compound disclosed herein or DMSO for 5 min. The enzyme was diluted 100× in phosphatase assay buffer containing 0.4 mM OMFP and fluorescence was measured at the indicated time points.

SMILES	IC50 [nM]
Nc1ncn(Cc2ccsc2)c2ncnc1-2 [3-Thiophen-3-ylmethyl-3H-purin-6-ylamine]	≥ 20000
Clc1cccc(Cl)c1Cn1cnc(NCc2cnco2)c2ncnc1-2 [[3-(2,6-Dichloro-benzyl)-3H-purin-6-yl]-oxazol-5-ylmethyl-amine]	1000 to 20000
NCCCCNc1ncn(Cc2c(Cl)cccc2Cl)c2ncnc1-2 [(4-Aminobutyl){3-[(2,6-dichlorophenyl)methyl](3-hydropurin-6-yl)}amine]	1000 to 20000
Nc1ncn(Cc2c(Cl)cccc2C(=O)O)c2ncnc1-2 [2-((6-amino-3H-purin-3-yl)methyl)-3-chlorobenzoic acid]	1000 to 20000
Nc1ncn(Cc2c(Cl)cccc2Cl)c2nc(-c3cccc(F)c3)nc1-2 [3-[(2,6-Dichlorophenyl)methyl]-8-(3-fluorophenyl)-3-hydropurine-6-ylamine]	≤ 1000
CCCNc1ncn(Cc2c(Cl)cccc2Cl)c2ncnc1-2 [[3-(2,6-Dichloro-benzyl)-3H-purin-6-yl]-propyl-amine]	1000 to 20000
Nc1ncn(Cc2c(Cl)cccc2Cl)c2nc(Cl)nc1-2 [3-[(2,6-Dichlorophenyl)methyl]-8-chloro-3-hydropurine-6-ylamine]	≥ 20000
Nc1ncn(Cc2c(Cl)cccc2Cl)c2nc(-c3ccoc3)nc1-2 [3-[(2,6-Dichlorophenyl)methyl]-8-(3-furyl)-3-hydropurine-6-ylamine]	≤ 1000
CN(C)c1ncn(Cc2c(Cl)cccc2Cl)c2ncnc1-2 [[3-(2,6-Dichloro-benzyl)-3H-purin-6-yl]-dimethyl-amine]	≥ 20000
N#Cc1ccc(Cn2cnc(N)c3ncnc2-3)cc1 [4-((6-amino-3H-purin-3-yl)methyl)benzonitrile]	1000 to 20000
COc1ccccc1Nc1ncn(Cc2c(Cl)cccc2Cl)c2ncnc1-2 [{3-[(2,6-Dichlorophenyl)methyl](3-hydropurin-6-yl)}(2-methoxyphenyl)amine]	1000 to 20000
Clc1cccc(Cl)c1Cn1cnc(NCc2ccncc2)c2ncnc1-2 [[3-(2,6-Dichloro-benzyl)-3H-purin-6-yl]-pyridin-4-ylmethyl-amine]	1000 to 20000
Nc1ncn(Cc2c(Cl)cccc2Cl)c2nc(-c3ccc(F)c(F)c3F)nc1-2 [3-[(2,6-dichlorophenyl)methyl]-8-(2,3,4-trifluorophenyl)-3-hydropurine-6-ylamine]	≤ 1000
Clc1cccc(Cl)c1Cn1cnc(N2CCCC2)c2ncnc1-2 [3-(2,6-Dichloro-benzyl)-6-pyrrolidin-1-yl-3H-purine]	≥ 20000
Oc1ccccc1Nc1ncn(Cc2c(Cl)cccc2Cl)c2ncnc1-2 [2-({3-[(2,6-Dichlorophenyl)methyl]-3-hydropurin-6-yl}amino)phenol]	1000 to 20000
Nc1ncn(Cc2c(Cl)cccc2Cl)c2nc(-c3cc[nH]n3)nc1-2 [3-[(2,6-Dichlorophenyl)methyl]-8-pyrazol-5-yl-3-hydropurine-6-ylamine]	≥ 20000
Clc1cccc(Cl)c1Cn1cnc(NCCN2CCCCC2)c2ncnc1-2 [{3-[(2,6-Dichlorophenyl)methyl](3-hydropurin-6-yl)}(2-piperidylethyl)amine]	≥ 20000
Cc1ccc(Nc2ncn(Cc3c(Cl)cccc3Cl)c3ncnc2-3)cc1 [{3-[(2,6-Dichlorophenyl)methyl](3-hydropurin-6-yl)}(4-methylphenyl)amine]	1000 to 20000
Nc1ncn(Cc2c(Cl)cccc2Cl)c2nc(-c3ccccc3F)nc1-2 [3-[(2,6-Dichlorophenyl)methyl]-8-(2-fluorophenyl)-3-hydropurine-6-ylamine]	≤ 1000
Nc1ncn(Cc2c(Cl)cccc2Cl)c2nc(-c3ccc(F)cc3F)nc1-2 [3-[(2,6-dichlorophenyl)methyl]-8-(2,4-difluorophenyl)-3-hydropurine-6-ylamine]	≤ 1000

SMILES	IC50 [nM]
Nc1ncn(Cc2c(Cl)cccc2Cl)c2nc(-c3cccnc3)nc1-2 [3-[(2,6-Dichlorophenyl)methyl]-8-(3-pyridyl)-3-hydropurine-6-ylamine]	≤ 1000
Cc1cccc(C)c1Nc1ncn(Cc2c(Cl)cccc2Cl)c2ncnc1-2 [{3-[(2,6-Dichlorophenyl)methyl](3-hydropurin-6-yl)}(2,6-dimethylphenyl)amine]	1000 to 20000
Cn1nccc1-c1nc2c(N)ncn(Cc3c(Cl)cccc3Cl)c-2n1 [3-[(2,6-Dichlorophenyl)methyl]-8-(1-methylpyrazol-5-yl)-3-hydropurine-6-ylamine]	≤ 1000
NCCNc1ncn(Cc2c(Cl)cccc2Cl)c2ncnc1-2 [(2-Aminoethyl){3-[(2,6-dichlorophenyl)methyl](3-hydropurin-6-yl)}amine]	≥ 20000
COc1ccc(CNc2ncn(Cc3c(Cl)cccc3Cl)c3ncnc2-3)c(OC)c1 [3-(2,6-dichlorobenzyl)-N-(2,4-dimethoxybenzyl)-3H-purin-6-amine]	1000 to 20000
Clc1cccc(Cl)c1Cn1cnc(NCc2ccco2)c2ncnc1-2 [[3-(2,6-Dichloro-benzyl)-3H-purin-6-yl]-furan-2-ylmethyl-amine]	1000 to 20000
COc1ccc(Cn2cnc(NCc3ccco3)c3ncnc2-3)cc1 [Furan-2-ylmethyl-[3-(4-methoxy-benzyl)-3H-purin-6-yl]-amine]	≥ 20000
Nc1ncn(Cc2c(Cl)cccc2Cl)c2nc(C3CCC3)nc1-2 [3-[(2,6-Dichlorophenyl)methyl]-8-cyclobutyl-3-hydropurine-6-ylamine]	≤ 1000
Nc1ncn(Cc2c(Cl)cccc2Cl)c2nc(C3=CCOCC3)nc1-2 [3-(2,6-dichlorobenzyl)-8-(3,6-dihydro-2H-pyran-4-yl)-3H-purin-6-amine]	≤ 1000
O=C(Nc1ncn(Cc2c(Cl)cccc2Cl)c2ncnc1-2)c1ccccn1 [Pyridine-2-carboxylic acid [3-(2,6-dichloro-benzyl)-3H-purin-6-yl]-amide]	1000 to 20000
Nc1ncn(Cc2c(Cl)cccc2Cl)c2nc(-c3cccs3)nc1-2 [3-[(2,6-Dichlorophenyl)methyl]-8-(2-thienyl)-3-hydropurine-6-ylamine]	≤ 1000
COc1ccncc1-c1nc2c(N)ncn(Cc3c(Cl)cccc3Cl)c-2n1 [3-[(2,6-Dichlorophenyl)methyl]-8-(4-methoxy(3-pyridyl))-3-hydropurine-6-ylamine]	≤ 1000
Nc1ncn(Cc2ccc(F)cc2)c2ncnc1-2 [3-(4-fluorobenzyl)-3H-purin-6-amine]	≥ 20000
Nc1ncn(Cc2cccc(Cl)c2Cl)c2ncnc1-2 [3-(2,3-Dichloro-benzyl)-3H-purin-6-ylamine]	1000 to 20000
Nc1ncn(Cc2c(Cl)cccc2Br)c2ncnc1-2 [3-(2-bromo-6-chlorobenzyl)-3H-purin-6-amine]	≤ 1000
Cc1cccc(Cn2cnc(N)c3ncnc2-3)n1 [3-(6-Methyl-pyridin-2-ylmethyl)-3H-purin-6-ylamine]	≥ 20000
Clc1ccccc1Cn1cnc(NCc2ccco2)c2ncnc1-2 [[3-(2-Chloro-benzyl)-3H-purin-6-yl]-furan-2-ylmethyl-amine]	≥ 20000
CNc1ncn(Cc2c(Cl)cccc2Cl)c2ncnc1-2 [[3-(2,6-Dichloro-benzyl)-3H-purin-6-yl]-methyl-amine]	1000 to 20000
Nc1ncn(Cc2ccc(F)cc2F)c2ncnc1-2 [3-(2,4-difluorobenzyl)-3H-purin-6-amine]	1000 to 20000
COc1ccccc1-c1nc2c(N)ncn(Cc3c(Cl)cccc3Cl)c-2n1 [3-[(2,6-Dichlorophenyl)methyl]-8-(2-methoxyphenyl)-3-hydropurine-6-ylamine]	≤ 1000
